{
  "source": "ChEMBL document CHEMBL5260852",
  "about": "“Long-Acting Tumor-Activated Prodrug of a TGFβR Inhibitor” (J Med Chem, 2021)",
  "key": {"[1]": {"assay": "Prodrug conversion in heart of C57BL/6 mouse xenografted mouse MC38 cells assessed as BMS-986260 Tmax at 8 mg/kg,iv and measured after 72 hrs by LC-MS/MS analysis", "type": "ADME, organism-based, MC-38", "details": "in vivo"}, "[2]": {"assay": "Prodrug conversion in C57BL/6 mouse xenografted mouse MC38 cells assessed as BMS-986260 ratio of AUC in heart to blood at 8 mg/kg,iv and measured after 72 hrs by LC-MS/MS analysis", "type": "ADME, organism-based, MC-38", "details": "other tissue"}, "[3]": {"assay": "Prodrug conversion in blood of C57BL/6 mouse xenografted mouse MC38 cells assessed as BMS-986260 Cmax at 8 mg/kg,iv and measured after 72 hrs by LC-MS/MS analysis", "type": "ADME, organism-based, MC-38", "design": "dose 8 mg/kg, time 72 hrs, route iv", "details": "in vivo"}, "[4]": {"assay": "Prodrug conversion in blood of C57BL/6 mouse xenografted mouse MC38 cells assessed as BMS-986260 Tmax at 8 mg/kg,iv and measured after 72 hrs by LC-MS/MS analysis", "type": "ADME, organism-based, MC-38", "details": "in vivo"}, "[5]": {"assay": "Stability in rat plasma assessed as parent compound remaining after 24 hrs by HPLC-MS analysis", "type": "ADME, cell-free", "details": "read-out: Stability"}, "[6]": {"assay": "Prodrug conversion in heart of C57BL/6 mouse xenografted mouse MC38 cells assessed as BMS-986260 Cmax at 8 mg/kg,iv and measured after 72 hrs by LC-MS/MS analysis", "type": "ADME, organism-based, MC-38", "design": "dose 8 mg/kg, time 72 hrs, route iv", "details": "in vivo"}, "[7]": {"assay": "Prodrug conversion in blood of C57BL/6 mouse xenografted mouse MC38 cells assessed as BMS-986260 ratio of AUC in tumor to blood at 8 mg/kg,iv and measured after 72 hrs by LC-MS/MS analysis", "type": "ADME, organism-based, MC-38", "details": "tumour"}, "[8]": {"assay": "AUC (0 to 72 hrs) in rat at 40 mg/kg,iv for 3 months", "type": "ADME, organism-based", "design": "time 3 months, dose 40 mg/kg, route iv", "details": "in vivo"}, "[9]": {"assay": "Prodrug conversion in tumor of C57BL/6 mouse xenografted mouse MC38 cells assessed as BMS-986260 Tmax at 8 mg/kg,iv and measured after 72 hrs by LC-MS/MS analysis", "type": "ADME, organism-based, Neoplasm, MC-38", "details": "in vivo"}, "[10]": {"assay": "Prodrug conversion in tumor of C57BL/6 mouse xenografted mouse MC38 cells assessed as BMS-986260 Cmax at 8 mg/kg,iv and measured after 72 hrs by LC-MS/MS analysis", "type": "ADME, organism-based, Neoplasm, MC-38", "design": "dose 8 mg/kg, time 72 hrs, route iv", "details": "in vivo"}, "[11]": {"assay": "AUC in C57BL/6 mouse plasma at 6 mg/kg,iv and measured upto 24 hrs by LC-MS/MS analysis", "type": "ADME, organism-based", "design": "dose 6 mg/kg, time < 24 hrs, route iv"}, "[12]": {"assay": "Toxicity in rat assessed as mortality at 3 mg/kg,iv for 3 months", "type": "organism-based", "details": "in vivo, 2190 h"}, "[13]": {"assay": "Prodrug conversion in blood of C57BL/6 mouse xenografted mouse MC38 cells assessed as BMS-986260 AUC (0 to 72 hrs) at 8 mg/kg,iv and measured after 72 hrs by LC-MS/MS analysis", "type": "ADME, organism-based, MC-38", "design": "time 72 hrs, dose 8 mg/kg, route iv", "details": "in vivo"}, "[14]": {"assay": "AUC (0 to 72 hrs) in rat at 3 mg/kg,iv for 3 months", "type": "ADME, organism-based", "design": "dose 3 mg/kg, time 3 months, route iv", "details": "in vivo"}, "[15]": {"assay": "Prodrug conversion in tumor of C57BL/6 mouse xenografted mouse MC38 cells assessed as BMS-986260 AUC (0 to 72 hrs) at 8 mg/kg,iv and measured after 72 hrs by LC-MS/MS analysis", "type": "ADME, organism-based, Neoplasm, MC-38", "design": "time 72 hrs, dose 8 mg/kg, route iv", "details": "in vivo"}, "[16]": {"assay": "Stability in mouse plasma assessed as parent compound remaining after 24 hrs by HPLC-MS analysis", "type": "ADME, cell-free", "details": "read-out: Stability"}, "[17]": {"assay": "AUC (0 to 24 hrs) in rat at 3 mg/kg,iv for 3 months", "type": "ADME, organism-based", "design": "time 3 months, dose 3 mg/kg, route iv", "details": "in vivo"}, "[18]": {"assay": "Drug concentration in C57BL/6 mouse plasma at 6 mg/kg,iv and measured after 24 hrs by LC-MS/MS analysis", "type": "ADME, organism-based"}, "[19]": {"assay": "Prodrug conversion in blood of C57BL/6 mouse xenografted mouse MC38 cells assessed as BMS-986260 ratio of AUC in tumor to heart at 8 mg/kg,iv and measured after 72 hrs by LC-MS/MS analysis", "type": "ADME, organism-based, MC-38", "details": "in vivo"}, "MC-38": {"system": "MC-38", "assay": "Antitumor activity against mouse MC38 cells allografted in C57BL/6 mouse assessed as reduction in tumor volume at 40 to 80 mg/kg, iv for 4 weeks in presence of anti-PD-1 antibody", "type": "functional, organism-based", "details": "dose 40-80 mg/kg"}, "[20]": {"assay": "Prodrug conversion in heart of C57BL/6 mouse xenografted mouse MC38 cells assessed as BMS-986260 AUC (0 to 72 hrs) at 8 mg/kg,iv and measured after 72 hrs by LC-MS/MS analysis", "type": "ADME, organism-based, MC-38", "design": "time 72 hrs, dose 8 mg/kg, route iv", "details": "in vivo"}, "[21]": {"assay": "Toxicity in C57BL/6 mouse at 80 mg/kg,iv", "type": "organism-based", "details": "in vivo"}},
  "note": "Activity calls are given as the source filed them. The rule behind the calls is not given here. Numbered stars: 1 amine (or outer) side, 2 acyl side, 3 side chain; on linkers, the order of the positions; unused ones are H or OH. Square brackets hold non-standard residues; d marks the D form. Peptide text beside a SMILES is read from it. * marks the point of attachment. X1 = N#Cc1cnc2ccc(-c3c(-c4ccc(F)c(Cl)c4)ncn3CCOCN*)nn12; C18 diacid = O=C(O)CCCCCCCCCCCCCCCCC(=O)*; γGlu = O=C(O)[C@H](CCC(=O)[*:2])N[*:1]; PABC = O=C(OCc1ccc(N[*:1])cc1)[*:2]; AEEA = NCCOCCOCC(=O)O",
  "data": [
    {"compound": "CC(C)C[C@H](NC(=O)COCCOCCNC(=O)COCCOCCNC(=O)CC[C@H](NC(=O)CC[C@H](NC(=O)CCCCCCCCCCCCCCCCC(=O)O)C(=O)O)C(=O)O)C(=O)N[C@@H](CO)C(=O)NCC(=O)N[C@@H](CCCCN)C(=O)Nc1ccc(COC(=O)NCOCCn2cnc(-c3ccc(F)c(Cl)c3)c2-c2ccc3ncc(C#N)n3n2)cc1", "note": "({C18 diacid-γGlu-γGlu-AEEA-AEEA}-LSGK[PABC]-X1)", "values": [
      {"measurement": "Tmax", "setting": "[1]", "result": 8, "unit": "h"},
      {"measurement": "Ratio AUC", "setting": "[2]", "result": 1.7},
      {"measurement": "Cmax", "setting": "[3]", "result": 120, "unit": "nM"},
      {"measurement": "Tmax", "setting": "[4]", "result": 1, "unit": "h"},
      {"measurement": "remaining at 24 h", "setting": "[5]", "result": 87, "unit": "%"},
      {"measurement": "Cmax", "setting": "[6]", "result": 200, "unit": "nM"},
      {"measurement": "Ratio AUC", "setting": "[7]", "result": 3.1},
      {"measurement": "AUC(0-t) at 2190 h", "setting": "[8]", "result": 81, "unit": "µM·h"},
      {"measurement": "Tmax", "setting": "[9]", "result": 1, "unit": "h"},
      {"measurement": "Cmax", "setting": "[10]", "result": 310, "unit": "nM"},
      {"measurement": "AUC at 24 h", "setting": "[11]", "result": 270, "unit": "µM·h"},
      {"measurement": "Activity", "setting": "[12]", "result": "Non-Toxic"},
      {"measurement": "AUC", "setting": "[13]", "result": 3.9, "unit": "µM·h"},
      {"measurement": "AUC(0-t) at 2190 h", "setting": "[14]", "result": 15, "unit": "µM·h"},
      {"measurement": "AUC", "setting": "[15]", "result": 12, "unit": "µM·h"},
      {"measurement": "remaining at 24 h", "setting": "[16]", "result": 92, "unit": "%"},
      {"measurement": "AUC(0-t) at 2190 h", "setting": "[17]", "result": 27, "unit": "µM·h"},
      {"measurement": "concentration at 24 h", "setting": "[18]", "result": 5200, "unit": "nM"},
      {"measurement": "Ratio AUC", "setting": "[19]", "result": 1.8},
      {"measurement": "Activity", "setting": "MC-38", "result": "Active"},
      {"measurement": "AUC", "setting": "[20]", "result": 6.7, "unit": "µM·h"},
      {"measurement": "Activity", "setting": "[21]", "result": "Non-Toxic"}
    ]}
  ]
}
